Earlier results in publication PMC10531095, “Photonics of Some Monomethine Cyanine Dyes in Solutions and in Complexes with Biomolecules” (International Journal of Molecular Sciences, 2023).

Tested on: ssDNA
Design: method as in PMID 15249599
Details: ssDNA vs. dsDNA ref 62; cited from earlier work

CCCN(CCCN(C)C)c1cc(/C=C2/Sc3ccccc3N2C)c2ccccc2[n+]1-c1ccccc1 [SYBR Green I]
fluorescence increase with ssDNA, times lower than with dsDNA: about 11 times
